US20090220562A1, “Osteogenic and anti-adipogenic oxysterols” (priority 2005, published 2009)

What was measured:
Format in all cases: cell-based, mouse
[1] = test system: osteocalcin mRNA; test: Northern blotting for osteocalcin mRNA in M2-10B4 cells; settings: for induction of osteocalcin gene expression by individual oxysterols: 0.5 to less than 10 μM, as many as 14 days (data not shown)
Method: RNA isolation and Northern blot analysis—Following treatment of cells under appropriate experimental conditions, total RNA was isolated using the RNA isolation kit from Stratagene (La Jolla, Calif., U.S.A.). Total RNA ([…]) was run on a 1% agarose/formaldehyde gel and transferred to Duralon-UV membranes (Strategene, CA, U.S.A.) and cross-linked with UV light. The membranes were hybridized overnight at 60 degree C. with ^32P-labeled mouse osteocalcin cDNA probe, mouse lipoprotein lipase (LPL), mouse adipocyte protein 2 (aP^2) PCR-generated probes, human 28S or 18S rRNA probes obtained from Geneka Biotechnology (Montreal, Quebec, Canada) and Maxim Biotech (San Francisco, Calif., U.S.A.), respectively. The PCR products were generated using primer sets synthesized by Invitrogen (Carlsbad, Calif., U.S.A.) with the following specifications: mouse aP2 gene (accession no. M13261); sense (75-95) 5′-[…]-3′, antisense (362-383) 5′-[…]-3′, generating a PCR product of 309 base pairs. Mouse LPL (accession no. XM—134193); sense (1038-1058) 5′-[…]-3′, antisense (1816-1836) 5′-[…]-3′, generating a PCR product of 799 base pairs. The PCR products were gel-purified and sequenced by the UCLA sequencing core, showing the highest similarity to their respective GenBank entries. Following hybridization, the blots were washed twice at room temperature with 2×SSC+0.1% SDS, and then twice at 60 degree C. with 0.5×SSC+0.1% SDS, and exposed to X-ray film. The extent of gene induction was determined by densitometry.
After 4 and 8 days, total RNA from duplicate samples was isolated and analyzed for osteocalcin (Osc) and 28S rRNA expression by Northern blotting as described. FIG. 3E is a radiogram of Northern blotting for osteocalcin mRNA in M2 cells exposed to a control or combination of oxysterols for 4 or 8 days. FIG. 3F is a bar graph depicting the relative demsometric units of osteocalcin mRNA in M2 cells exposed to a control or combination of oxysterols for 4 -or 8 days. Data from densitometric analysis of the Northern blot is shown in (F) as the average of duplicate samples, normalized to 28S rRNA.
Next, a combination of 22R and 20S oxysterols (RS, 2.5 μM each) were added in the presence or absence of SC as indicated. After 3 days, ALP activity was measured as described earlier. […] (B) M2 cells were treated as described in (A) and after 10 days matrix mineralization in cultures was quantified by a ^45Ca incorporation assay as described earlier. […] (C) M2 cells were pretreated with 20 μM SC for 4 hours, followed by the addition of RS in the presence or absence of SC as described above. After 8 days, total RNA was isolated and analyzed for osteocalcin (Osc) and […] expression by Northern blotting as previously described. Data from densitometric analysis of the Northern blot is shown in (D) as the average of duplicate samples, normalized to 18S rRNA. (E) M2 cells at confluence were pretreated for 2 hours with control vehicle (C), or PLA2 inhibitors ACA (25 μM) and AACOCF3 (AAC, 20 μM), in osteogenic medium. Next, a combination of 22R and 20S oxysterols (RS, 2.5 μM) was added in the presence or absence of the inhibitors as indicated. After 3 days, ALP activity was measured as previously described. […] (F) M2 cells were treated as described in (E). After 10 days, matrix mineralization in cultures was quantified using a ^45Ca incorporation assay as previously described. Results from a representative of three experiments are shown, reported as the mean of quadruplicate determinations ±SD, normalized to protein concentration (p<0.01 for RS vs. RS+ACA and RS+AAC).
ALP activity was measured after 2 days, as described. […] (B) M2 cells were treated as described in (A). After 10 days, matrix mineralization in cultures was quantified using a ^45Ca incorporation assay as described. […] (C) M2 cells were treated under similar conditions as those described above. […]

[2] = test system: marrow stromal cells; test: Osteogenic differentiation of marrow stromal cells (marker not specified: ALP activity, osteocalcin mRNA, mineral formation); settings: pretreatment and co-treatment; 20S 5-15 μM
Method: The purpose of the study was to identify other osteogenic and anti-adipogenic oxysterols based on the chemical structure of previously identified oxysterols. The ability of such candidate oxysterol molecules to induce the formation of osteoblastic cells in cultures of marrow stromal cells (which are progenitors of osteoblastic cells that make bone) were tested. In order to assess osteogenic differentiation of cells, one or more markers of osteogenic differentiation were measured in untreated cells and cells treated with the test oxysterols. These markers included: alkaline phosphatase activity, osteocalcin mRNA expression and mineral formation in cultures of marrow stromal cells. Activation of either one or more than one marker by a single or combination oxysterols is indicative of their osteogenic property.

[3] = test system: ERK1 and ERK2; test: Western blot for native and phosphorylated ERK in M2 cells; settings: 5 μM 20S oxysterol for 1, 4, or 8 hours
Method: Western blot analysis—After treatments, cells were lysed in lysis buffer, protein concentrations determined using the Bio-Rad protein assay (Hercules, Calif. U.S.A.), and SDS-PAGE performed as previously described. Probing for native and phosphorylated ERKs was performed as previously reported.
(A) M2 cells at confluence were pretreated for four hours with RPMI containing 1% FBS, followed by treatment with control vehicle or 5 μM 20S oxysterol for 1, 4, or 8 hours. Next total cell extracts were prepared and analyzed for levels of native or phosphorylated ERK (pERK) using specific antibodies as previously described. Data from a representative of four experiments are shown, each treatment shown in duplicate samples. (B) M2 cells at confluence were pretreated for 2 hours with control vehicle (C) or 20 μM PD98059 (PD) in osteogenic medium as previously described. Next, a combination of 22R and 20S oxysterols (RS, 5 μM each) were added to appropriate wells as indicated. After 10 days of incubation, matrix mineralization was quantified by the ^45Ca incorporation assay as previously described. […] (C) M2 cells at confluence were pretreated for 2 hours with 20 µM PD98059 (PD) in RPMI containing 5% FBS. […] After 10 days, adipocytes were visualized by oil Red O staining and quantified by light microscopy as previously described. […]

[4] = test system: Runx2; test: Runx2 DNA binding and protein expression in M2-10B4 cells; settings: doses of 5-15 μM
Method: Method: Marrow stromal cells (M2-10B4 (M2)) were treated with doses of 5-15 μM 20S-hydroxycholestrol.
Method: Marrow stromal cells (M2-10B4 (M2)) were treated with doses of 5-15 μM20S-hydroxycholestrol. Groups of cells were pre-treated with 22S or 22R.
Method: Marrow stromal cells (M2-10B4 (M2)) were pretreated with Wnt signaling inhibitor, DKK-1 (1 μg/ml), then treated with 20S-hydroxycholestrol and 22(8)-hydroxycholesterol.

Compound	induction of osteocalcin gene expression by individual oxysterols [1]	enhancement of 20S-hydroxycholesterol's induction of ALP activity, Runx2 DNA binding and protein expression, osteocalcin mRNA expression and mineralization [2]	osteocalcin mRNA expression ([1]; doses of 5-15 μM)	activation of ERK1 and ERK2 [3]	Runx2 DNA binding and protein expression [4]
CC(C)CC[C@H](O)[C@@H](C)[C@H]1CC[C@H]2[C@@H]3CC=C4C[C@@H](O)CC[C@]4(C)[C@H]3CC[C@]12C [22S-hydroxycholesterol]	unable to induce	greatly enhanced	–	–	–
CC(C)CC[C@@H](O)[C@@H](C)[C@H]1CC[C@H]2[C@@H]3CC=C4C[C@@H](O)CC[C@]4(C)[C@H]3CC[C@]12C [22R-hydroxycholesterol]	unable to induce	greatly enhanced	–	–	–
CC(C)CCC[C@](C)(O)[C@H]1CC[C@H]2[C@@H]3CC=C4C[C@@H](O)CC[C@]4(C)[C@H]3CC[C@@]21C [20S-hydroxycholesterol]	unable to induce	–	induction	sustained activation	induction
